The structures appear in SMILES notation. “Also recorded” adds a separate entry of the source.

Data set [1] concerns rabbit IgG immunoglobulin. Nature of the data set: Functional fluorescence plate assay, dye-GAR conjugates. In kind it is binding. The settings on record: LiCOR Odyssey, FIGS. 17, 19. Here is the method: Performance of the dye-GAM conjugates, dye-GAR conjugates, and dye-SA conjugates was evaluated in a functional plate assay. Wells of a 96 white opaque plate or black clear-bottom plate were coated with target proteins mouse IgG immunoglobulin, rabbit IgG immunoglobulin, or biotinylated bovine serum albumin (BBSA). One hundred μl mouse or rabbit IgG, or BBSA at a concentration of 10 μg/ml was applied to the corresponding wells in columns 1 and 2. The target proteins were serially diluted 1:1 from the wells in columns 2 to 11 using 100 μl PBS. One hundred μl of the samples from the wells in column 11 were discarded. One hundred μl PBS was added to the wells in column 12. The plates were incubated overnight at 4° C. and then blocked 2×200 μl with Thermo Scientific SuperBlock® Blocking Buffer. The coated plates were washed 2×200 μl with PBS-Tween and 1×200 μl with PBS. Based on the calculated concentrations, conjugates were diluted 1:250 in PBS, added to the corresponding plates (100 μl/well) and then incubated for one hour in the dark. The plates were washed with 2×200 μl with PBS-Tween and 1×200 μl with PBS and filled with PBS buffer (100 μl/well) prior to scanning the white opaque plates on Tecan Safire using 679 nm excitation/702 nm emission or scanning the black clear-bottom plates on LiCor Odyssey at 700 channel, to detect fluorescence intensity.

The subject of data set [2] is lamin A. Nature of the data set: Immunofluorescence detection of lamin A in U2OS cells, dye-GAM secondary (FIG. 29A-C and repeat). The class given is cell-based, human. The settings on record: for Mean Total Intensity, Negative control: no primary antibody. Here is the method: In the indicated experiments, the inventive compounds and commercial dye were evaluated for immunofluorescence in a cell based assay using the following protocol. Frozen U20S cell plates which were stored at −80° C. were thawed for 45 minutes at 50° C. Storage buffer (PBS) was removed and the cells were permeabilized for 15 minutes with 0.1% Triton-X100 in 1×PBS buffer (100 μl/well). The cell plate was blocked for 60 minutes in 2% BSA/PBS-0.1% Triton-X100. Primary antibody, either rat anti-Grp94 (5 μg/ml), mouse anti-lamin A (10 μg/ml), or rabbit anti-lamin B1 (10 μg/ml), diluted in 2% BSA/PBS-0.1% Triton-X100 was added to the plate and incubated for 1 hour at room temperature. Control wells contained only 2% BSA/PBS-0.1% Triton-X100 blocker. After incubation, the antibody solution was removed from the plate and the plate was washed three times with 100 μl/well of PBS-0.5% Tween-20 and one time with 100 μl/well PBS. GARat, GAM, or GAR secondary antibodies labeled with various molar excess of the inventive or commercial compound were diluted to 4 μg/ml in PBS and incubated for 1 hour at room temperature. The plates were washed three times with 100 μl/well of PBST and once with 100 μl/well PBS, and Hoechst (diluted to 0.1 μg/ml in PBS) was added to each well (100 μl/well). The plates were scanned on ArrayScan Plate Reader or ToxInsight Instrument.
Quantitative analysis of a repeat experiment of FIG. 29A-C are shown below.

Data set [3] in a line: Absorption/emission profiles and spectral properties of the dyes. The class given is physicochemical. Here is the method: The following properties of 679 Compound 1-NHS were compared with commercially available dyes.
Emission/excitation profiles for inventive and commercial compounds was determined by reconstituting the compounds in DMF at 10 mg/ml and then diluting in PBS buffer pH 7.2 to 10 μg/ml. Absorbance spectra were collected on Cary UV spectrophotometer and emission spectra were collected on Tecan Safire, shown in FIG. 1 where solid lines represent absorbance spectra and dashed lines represent emission spectra, for DyLight 680-NHS (purple), DyLight 680B-NHS (blue), 679 Compound 1-NHS (red), and Company B Compound-NHS (black). The maximum absorbance and emission for each compound is shown below.
The following properties of 679 Compound 1-NHS, 679 Compound 4/4-NHS (V08-15173), and 679 Compound 4/4-NHS (V10-04152) were compared with commercially available dyes.

The test system of data set [4] is lamin A. The experiment in a line: Immunofluorescence of nuclear envelope in U2OS cells, mouse anti-lamin A, dye-GAM (FIG. 43). As to conditions: FIG. 43A. In kind it is cell-based, human. The procedure: U2OS (human bone cancer) or HeLa cells were seeded at 5,000 cells per well in 96-well plates and incubated for 18-20 hours at 37° C., 5% CO2 in a humidified incubator. The cells were fixed with 4% paraformaldehyde and permeabilized with 0.1% Thermo Scientific Surfact-Amps X-100 Detergent, then blocked for nonspecific IgG binding. Cells were incubated with a target-specific primary antibody for 30 minutes at room temperature (RT). After washing with PBS containing 0.05% Tween™-20 Detergent Solution, cells were incubated for 30 minutes at RT with 4 μg/mL of the appropriate secondary antibody conjugated with 679 Compound 4/4 and compared to similarly conjugated counterparts (DyLight 680, Alexa Fluor™ 680, and CF™ 680 Dyes) for 30 minutes at RT. The conjugates were affinity purified goat anti-mouse IgG (H+L) (GAM) or goat anti-rabbit IgG (H+L) (GAR). […] Microscopy time lapse experiments to measure dye photostability were performed using the appropriate shift-free optical filter set with a 40×/1.3 oil objective on a Zeiss Axio Observer™ .Z1 fluorescence microscope using an ORCA-ER-1394 Hamamatsu, CCD Digital Camera and the AxioVison™ Release 4.7 Software. […]
The nuclear envelop in U2OS cells was fluorescently labeled with mouse anti-lamin A primary antibody and detected with goat anti-mouse conjugated to 679 Compound 4/4-NHS, DyLight 680-NHS, Alexa Fluor 680-NHS and CF 680-SE Dyes. […]

The nature of data set [5]: In vivo biodistribution and clearance of free dye. As to conditions: 100 μL of 1 mg/mL hydrolyzed dye IV via retro orbital plexus, imaged to 24 h. Set-up: species or system nude mice. Here is the method: In in vivo biodistribution, the mice received intravenous dye injections via the retro orbital plexus and were imaged on a Carestream MSFX Imager (690 nm excitation/750 nm emission) before injection and at 0 h, 3 h, 6 h, 12 h, and 24 h post injection. After the final time point, animals were sacrificed and organs were collected for ex vivo imaging. Toxicity was evaluated by investigating the dissected tissue section.
Biodistribution and clearance was investigated in the live animals over time by measuring the clearance or specific retention of the dye/labeled target. Experiments were performed in triplicate on nude mice. 100 μL of 1 mg/mL hydrolyzed dye solution was IV injected via the retro orbital plexus. Animals were imaged using 690 nm excitation and 750 nm emission at 140 mm FOV on a Carestream XTREME (10 s) Imager. Images taken before (pre) and at 0 min, 10 min, 30 min, 1 hour, 3 hour, 6 hour, 12 hour and 24 hours post injection are shown in FIG. 44B. After the final time point, the organs were collected for ex vivo imaging to confirm and quantify accumulation of the agent in tumors, tissues, and other organs (heart, liver, spleen, GI tract, lungs and kidney), as shown in FIG. 44C using triplicate mice. 679 Compound 4/4 allowed for probe conjugation, high fluorescence with excellent sensitivity for deep-tissue in vivo imaging, and target quantification in tissues.

Data set [6] can be described thus: Dye toxicity, H&E histology of heart, liver, spleen, lungs, kidney. The class given is in vivo. The settings on record: H&E staining of tissues after 24 h. Here is the method:
After the final time point, animals were sacrificed and their organs collected for ex vivo imaging to confirm and quantify dye accumulation in tumors, tissues, and other organs such as heart, liver, spleen, GI tract, lungs, and kidney. Images were taken before (pre), and at 0 min, 10 min, 30 min, 1 hour, 3 hour, 6 hour, 12 hour, and 24 hour post injection. To test dye toxicity, heart, liver, spleen, lungs and kidney tissues were gathered from one mouse from each cohort, fixed, stained with hematoxylin and eosin (H&E), and evaluated.
Colorimetric images were acquired at 20× on a Nikon 90i microscope.

Data set [7] can be described thus: Photobleaching without anti-fade, U2OS cells stained with lamin B1/dye-conjugated GAR. The class given is physicochemical. Here is the method:
Photobleaching of inventive and commercial compounds without anti-fade reagent was examined. U2OS cells stained with lamin B1/dye-conjugated GAR were exposed to bright light (3.4V) for 8 sec at intervals of 1 sec, the overall capture amounting to a total of about 15 min using the TR filter Obj.: 20× NA: 0.4 on the Zeiss Axio Observer .Z1 microscope. The image stacks collected from the time-lapse experiment were analyzed using ImageJ software to determine the decay rate of fluorescence intensity. The raw intensity was normalized to initial intensity for each conjugate and the photobleaching curve was plotted against time, as shown in FIG. 48. Immunostaining with 679 Compound 4/4 conjugate had shown about 2 to 3-fold brighter staining intensity compared to DyLight 680 Dye.

`COCC[N+]1=C(/C=C/C=C/C=C2/N(CCCCCC(=O)O)c3ccc4c(S(=O)(=O)[O-])cc(S(=O)(=O)[O-])cc4c3C2(C)C)C(C)(CCCS(=O)(=O)[O-])c2c1ccc1c(S(=O)(=O)[O-])cc(S(=O)(=O)[O-])cc21.[Na+].[Na+].[Na+].[Na+]` (centres unmarked) [679 Compound 1/1, 2-{(1E,3E)-5-[3-(5-Carboxypentyl)-1,1-dimethyl-6,8-disulfo-1,3-dihydro-benzo[e]indol-(2E)-ylidene]-penta-1,3-dienyl}-3-(2-methoxy-ethyl)-1-methyl-6,8-disulfo-1-(3-sulfopropyl)-1H-benzo[e]indolium]: the “Raw Fluorescence Intensity, quenching at high molar excess (in words)” value in data set [1] was “saturating at 25×; also recorded: apparent quenching at 1000 ng/well at 25×”. In addition, the “Mean Total Intensity (Average)” value in the data set with lamin A [2] (GAM conjugate 4 μg/ml, 2.5 X molar excess) is 29229; in the data set with lamin A [2] (GAM conjugate 4 μg/ml, 5.0 X molar excess), 49279; in the data set with lamin A [2] (GAM conjugate 4 μg/ml, 7.5 X molar excess), 28782; in the data set with lamin A [2] (GAM conjugate 4 μg/ml, 10 X molar excess), 30098; in the data set with lamin A [2] (GAM conjugate 4 μg/ml, 15 X molar excess), 48071; in the data set with lamin A [2] (repeat experiment, 2.5 X molar excess), 77195. Also, the “Mean Total Intensity (Average)” value came out at 140772 in the data set on lamin A [2] (repeat experiment, 5 X molar excess); 159948 in the data set on lamin A [2] (repeat experiment, 10X molar excess); 199626 in the data set with lamin A [2] (repeat experiment, 15 X molar excess). The “Mean Total Intensity, Negative control” value in the data set with lamin A [2] (2.5 X) is given as 5628; with lamin A [2] (5.0 X), 5859; in the data set on lamin A [2] (10 X) it was 6115; with lamin A [2] (15 X) it was 7277; in the data set on lamin A [2] (repeat experiment, 2.5 X), 8711; with lamin A [2] (repeat experiment, 5 X) it was 8674. Further, the “Mean Total Intensity, Negative control” value worked out at 20481 in the data set with lamin A [2] (repeat experiment, 10X) and 16277 in the data set with lamin A [2] (repeat experiment, 15 X). The S/B in the data set on lamin A [2] (repeat experiment, 2.5 X) is recorded as 8.9; in the data set with lamin A [2] (repeat experiment, 5 X), 16.2; with lamin A [2] (repeat experiment, 10X), 7.8; in the data set on lamin A [2] (repeat experiment, 15 X), 12.3.
Consider `COCCOCCOCCOCC[N+]1=C(/C=C/C=C/C=C2/N(CCOCCOCCOCCOCCC(=O)O)c3ccc4c(S(=O)(=O)[O-])cc(S(=O)(=O)O)cc4c3C2(C)CCOCCOCCOCCOC)C(C)(CCOCCOCCOCCOC)c2c1ccc1c(S(=O)(=O)O)cc(S(=O)(=O)O)cc21` (centres unmarked) [679 Compound 4/4], for which, in data set [3], the emits at worked out at 706 nm and the excites at was 684 nm. The “staining intensity, fold brighter compared to DyLight 680-GAM, Alexa Fluor 680-GAM and CF 680-GAM” value in the data set on lamin A [4] is listed as 2-3 fold. The “biodistribution and clearance (in words)” value in data set [5] was “rapid clearance through kidney and/or gastrointestinal tract; also recorded: fast whole-body dye uptake and displayed rapid dye clearance mainly through the kidney and GI tract”. In addition, the “toxicity (in words)” value in data set [6] was “low intrinsic toxicity; also recorded: No tissue damage was observed from histology”. Moreover, the “photostability (in words)” value in data set [7] (absence of anti-fade agent) is reported as “slightly less stable than DyLight 680 dye”. Also, in data set [7] (immunostaining), the “staining intensity, fold brighter compared to DyLight 680 Dye” value lay in the range of 2 to 3 fold.
